Laboratory results as given in US20030125311A1, “Compounds capable of binding with the cytoskeleton” (priority 2002, published 2003).

What was measured:
[1] = target: T1, purified calf MAP2 (Bos taurus, UniProt A0A3Q1NAK9); assay: Equilibrium binding of PREG [3H] to purified calf MAP2
T1 construct: from tissue; host or cells: calf brain microtubules, heat denaturation and Sephacryl 300 gel filtration
Method: (§1) The tau and MAP2 proteins are purified according to the protocol of Fellous et al. (12) by heat denaturation of the microtubules and gel filtration on a column, Sephacryl 300® being used instead of the Ultrogel ACA 34. The tau proteins are then Further purified according to the method of Lindwall and Cole (15).
(§2) Purified calf brain tubulin (90 μg/ml), MAP2 (45 μg/ml) or tau protein (25 μg/ml) is incubated with 100 nM of PREG [^3H], with or without a 1,000-fold excess of non-radioactive PREG.
(§3) The B/U values are reported in FIG. 5 as a function of B in nM, (-∘-) representing equilibrium binding of purified calf brain MAP2, and (-∘-) the equilibrium binding of purified calf brain MAP2 associated with purified calf brain tubulin (for the experimental details, see FIG. 1).

[2] = target: T2, MAP2-tubulin copolymers (Bos taurus, UniProt A0A3Q1NAK9); assay: Equilibrium binding of PREG [3H] to MAP2-tubulin copolymers; parameters: species or system calf
T2 sequence (A0A3Q1NAK9 1-1867): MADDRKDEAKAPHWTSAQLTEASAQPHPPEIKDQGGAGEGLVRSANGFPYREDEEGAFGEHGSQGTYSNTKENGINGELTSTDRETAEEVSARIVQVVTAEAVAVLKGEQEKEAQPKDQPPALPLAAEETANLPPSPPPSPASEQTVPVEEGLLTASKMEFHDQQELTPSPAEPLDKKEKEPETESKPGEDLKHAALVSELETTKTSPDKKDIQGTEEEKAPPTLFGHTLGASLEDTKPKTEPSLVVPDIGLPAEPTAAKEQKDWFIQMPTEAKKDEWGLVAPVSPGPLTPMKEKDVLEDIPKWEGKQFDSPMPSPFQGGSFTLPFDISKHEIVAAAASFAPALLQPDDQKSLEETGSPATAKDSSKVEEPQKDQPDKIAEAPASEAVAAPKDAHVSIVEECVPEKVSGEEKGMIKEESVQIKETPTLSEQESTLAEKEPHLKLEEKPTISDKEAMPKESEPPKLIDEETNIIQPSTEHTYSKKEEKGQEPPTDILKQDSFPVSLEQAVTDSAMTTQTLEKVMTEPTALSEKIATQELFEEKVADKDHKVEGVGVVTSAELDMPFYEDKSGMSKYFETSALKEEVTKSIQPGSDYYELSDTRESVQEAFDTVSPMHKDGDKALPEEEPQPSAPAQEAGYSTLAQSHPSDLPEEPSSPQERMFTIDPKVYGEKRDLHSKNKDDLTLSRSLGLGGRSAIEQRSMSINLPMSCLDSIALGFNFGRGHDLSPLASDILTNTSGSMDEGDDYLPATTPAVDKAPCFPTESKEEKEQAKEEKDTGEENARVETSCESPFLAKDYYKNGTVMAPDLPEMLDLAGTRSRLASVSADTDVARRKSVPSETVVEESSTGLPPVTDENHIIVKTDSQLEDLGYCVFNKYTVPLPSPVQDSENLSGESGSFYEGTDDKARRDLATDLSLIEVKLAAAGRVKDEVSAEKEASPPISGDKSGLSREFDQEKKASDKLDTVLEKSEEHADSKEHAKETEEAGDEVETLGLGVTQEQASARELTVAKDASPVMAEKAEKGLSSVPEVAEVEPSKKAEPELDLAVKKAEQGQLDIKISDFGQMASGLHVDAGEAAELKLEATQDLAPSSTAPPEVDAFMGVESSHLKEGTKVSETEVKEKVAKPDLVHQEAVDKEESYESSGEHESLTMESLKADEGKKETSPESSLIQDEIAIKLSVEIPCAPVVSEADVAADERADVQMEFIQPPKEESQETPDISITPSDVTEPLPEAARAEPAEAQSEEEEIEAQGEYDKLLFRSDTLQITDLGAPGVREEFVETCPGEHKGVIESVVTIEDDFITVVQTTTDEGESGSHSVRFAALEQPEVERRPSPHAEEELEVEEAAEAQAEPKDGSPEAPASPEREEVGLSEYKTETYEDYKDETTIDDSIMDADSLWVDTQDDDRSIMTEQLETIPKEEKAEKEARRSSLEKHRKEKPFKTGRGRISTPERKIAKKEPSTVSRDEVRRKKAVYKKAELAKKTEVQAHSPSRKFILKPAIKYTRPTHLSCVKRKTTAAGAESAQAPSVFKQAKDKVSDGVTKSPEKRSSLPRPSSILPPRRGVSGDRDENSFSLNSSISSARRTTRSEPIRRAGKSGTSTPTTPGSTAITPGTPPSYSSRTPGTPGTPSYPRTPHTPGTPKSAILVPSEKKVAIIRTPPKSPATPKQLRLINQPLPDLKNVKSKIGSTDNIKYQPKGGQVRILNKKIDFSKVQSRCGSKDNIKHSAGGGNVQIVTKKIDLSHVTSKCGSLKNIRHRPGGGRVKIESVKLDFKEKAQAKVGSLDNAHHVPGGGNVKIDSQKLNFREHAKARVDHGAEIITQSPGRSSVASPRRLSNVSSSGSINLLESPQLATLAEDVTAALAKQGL
Method: (§4) The calf tubulin is purified according to the protocol of Weingarten et al. (13), but the step using phosphocellulose is replaced by a cation exchange column chromatography (Fractogel, Merck) (14). The microtubules and the tubulin are prepared in L buffer, supplemented with 1 mM of GTP (buffer A).
as §1, §2, §3

[3] = tested on: rat brain cytosol binding sites of pregnenolone; assay: Competition trials for PREG [3H] binding in brain cytosol; parameters: key to R.C.R. 50 (relative competition index): IC50(PREG)/IC50(competitor) ×100; PREG = 100; details: PREG = 100, 50% reduction of specific binding of 100 nM PREG [3H], mean±standard error, n=3
Method: (§5) In trials of competition between pregnenolone and different steroids for the binding studied, 0.2 ml of cytosol is incubated with 100 nM of PREG [^3H] and a 1-, 10-, 100-, and 1,000-fold excess of non-radioactive steroid.
To study the specificity of the binding of PREG [^3H], different steroids were used.
(§6) The relative competition index was determined as ratios of the concentrations of the competitor (in the […]) versus PREG causing a reduction of 50% of the specific binding of PREG [^3H]×100 (mean±standard error, n=3).

[4] = target: fetal microtubules (Rattus norvegicus, UniProt P15146); assay: Competition for PREG [3H] binding to fetal microtubules (RCR); details: PREG = 100
Sequence of fetal microtubules (P15146 whole entry): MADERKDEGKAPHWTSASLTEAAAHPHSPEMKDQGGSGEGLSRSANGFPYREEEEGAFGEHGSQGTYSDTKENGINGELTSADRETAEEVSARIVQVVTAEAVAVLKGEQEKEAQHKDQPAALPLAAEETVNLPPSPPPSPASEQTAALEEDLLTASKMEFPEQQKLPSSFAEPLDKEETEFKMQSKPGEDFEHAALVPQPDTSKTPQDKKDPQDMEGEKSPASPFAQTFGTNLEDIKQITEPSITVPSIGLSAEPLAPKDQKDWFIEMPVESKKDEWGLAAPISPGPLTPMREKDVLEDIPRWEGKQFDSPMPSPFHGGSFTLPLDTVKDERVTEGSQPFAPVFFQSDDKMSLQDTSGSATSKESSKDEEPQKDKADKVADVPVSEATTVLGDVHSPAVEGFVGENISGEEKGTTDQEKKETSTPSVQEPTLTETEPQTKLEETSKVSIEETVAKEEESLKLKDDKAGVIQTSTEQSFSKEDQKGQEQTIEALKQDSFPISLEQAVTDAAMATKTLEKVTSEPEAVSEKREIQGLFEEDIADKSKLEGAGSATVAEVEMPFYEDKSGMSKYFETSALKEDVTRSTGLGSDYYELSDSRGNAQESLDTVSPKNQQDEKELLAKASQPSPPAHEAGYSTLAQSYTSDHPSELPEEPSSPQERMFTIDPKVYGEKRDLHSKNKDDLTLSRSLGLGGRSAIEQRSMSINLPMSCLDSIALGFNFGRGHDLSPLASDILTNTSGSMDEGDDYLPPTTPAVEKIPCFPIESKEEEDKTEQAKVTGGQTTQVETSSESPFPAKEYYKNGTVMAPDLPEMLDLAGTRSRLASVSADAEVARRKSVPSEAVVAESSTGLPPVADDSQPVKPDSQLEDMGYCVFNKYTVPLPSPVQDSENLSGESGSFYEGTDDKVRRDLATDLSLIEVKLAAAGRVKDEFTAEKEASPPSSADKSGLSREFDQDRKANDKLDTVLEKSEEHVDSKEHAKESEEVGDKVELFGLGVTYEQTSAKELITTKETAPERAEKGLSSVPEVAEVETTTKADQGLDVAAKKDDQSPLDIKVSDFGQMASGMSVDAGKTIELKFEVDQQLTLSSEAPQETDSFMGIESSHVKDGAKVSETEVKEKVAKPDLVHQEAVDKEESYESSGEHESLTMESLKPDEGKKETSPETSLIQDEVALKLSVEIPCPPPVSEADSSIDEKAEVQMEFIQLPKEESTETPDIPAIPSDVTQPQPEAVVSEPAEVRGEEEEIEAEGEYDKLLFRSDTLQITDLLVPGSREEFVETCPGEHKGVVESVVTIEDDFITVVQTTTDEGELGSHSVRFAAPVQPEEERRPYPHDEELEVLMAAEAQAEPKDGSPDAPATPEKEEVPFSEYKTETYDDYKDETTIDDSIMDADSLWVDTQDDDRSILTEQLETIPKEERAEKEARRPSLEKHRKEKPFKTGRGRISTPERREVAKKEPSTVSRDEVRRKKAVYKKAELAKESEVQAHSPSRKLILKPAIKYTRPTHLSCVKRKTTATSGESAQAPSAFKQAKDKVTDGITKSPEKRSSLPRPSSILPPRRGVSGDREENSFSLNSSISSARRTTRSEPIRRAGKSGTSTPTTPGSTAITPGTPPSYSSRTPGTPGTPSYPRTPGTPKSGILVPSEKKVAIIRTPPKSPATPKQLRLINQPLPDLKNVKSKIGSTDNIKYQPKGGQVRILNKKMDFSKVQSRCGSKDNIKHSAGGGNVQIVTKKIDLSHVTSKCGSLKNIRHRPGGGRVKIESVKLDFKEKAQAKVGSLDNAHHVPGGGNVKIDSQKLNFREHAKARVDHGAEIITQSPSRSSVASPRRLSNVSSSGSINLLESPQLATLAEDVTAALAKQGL
Method: as §5
The microtubules are prepared starting from calf brain or adult or fetal rat brain according to an assembly/disassembly method, as a function of the temperature, in vitro (12).
as §6
The binding of PREG [^3H] to microtubules prepared by polymerization/depolymerization cycles was determined.

[5] = target: T2, MAP2-tubulin copolymers; assay: Competition for PREG [3H] binding to MAP2-tubulin copolymers (RCR); parameters: species or system calf; details: MAP2-tubulin copolymers; PREG = 100
Method: as §5, §6, §2

[6] = tested on: purified calf brain tubulin; assay: Saturable binding of PREG [3H] to purified tubulin; details: tubulin 90 μg/ml, 100 nM PREG [3H] ± 1,000-fold excess PREG
Method: as §4, §2

[7] = tested on: calf brain tubulin assembled with calf brain MAP2; assay: Electron microscopy of microtubules polymerized in the presence of PREG; assay type: biochemical; details: 500 nM of PREG
Method: After the polymerization of the microtubules induced by MAP2 in the absence or presence of the substance to be tested, an aliquot portion of the experimental sample is deposited on a hydrophilic grid (300 mesh) covered with carbon. The grids are treated with an aqueous solution of 1% uranyl acetate. Observations are performed with a Phllips CM12 electron microscope.
Analysis was performed of microtubules polymerized in the presence of PREG to verify their appearance.

T1 sequence (A0A3Q1NAK9 1-1867): as the sequence (A0A3Q1NAK9 1-1867) above

`CC(=O)C1CCC2C3CC=C4CC(O)CCC4(C)C3CCC12C` (stereo not drawn) [Pregnenolone] was tested, and the Bmax [1] was 16 pmol/mg of MAP2, the Kd [1] was 39.2 nM and the Bmax [2] was 135 pmol/mg of MAP2. For the same compound, the Kd [2] was 44 nM, the “R.C.R. 50 (relative competition index)” value [3] was 100 and the RCR [4] was 100. The RCR [5] was 100, the “saturable binding to tubulin” value [6] was “neither tubulin, nor tau protein, nor rabbit IgG binds PREG [^3H] in a saturable manner” and the “structure of the microtubules” value [7] was “remains completely normal”.
